The record followed here is patent US6015560A, “Antibody recognizing endothelial cell ligand for leukocyte CR3” (priority 1995, dated 2000).

The test system of data set [1] is neutrophils. In words: Transendothelial migration of neutrophils. It is filed as cell-based, human. The method, then:
Transendothelial migration of neutrophils was studied based on a method described by Muller et al. (1992), J. Exp. Med. 176: 819-828. Briefly, human neutrophils suspended in ice-cold Hanks balanced salt solution (HBSS) containing Ca^++ and Mg^++ (Sigma) were fluoresceinated by adding 3.3 μl/ml 5-(and 6-)carboxyfluorescein diacetate, succinimidyl ester (CFSE, Molecular Probes Inc., Oreg.). After incubation for 30 mins. on ice, neutrophils were washed twice in cold HBSS with Ca^++ and Mg^++ and resuspended in cold Medium 199 (M199, Sigma) to a final concentration of 10^6 /ml. Human umbilical vein endothelial cells were subcultured at confluence into 96-well tissue culture plates (Becton Dickinson Labware, Lincoln Park, N.J.) that were coated with hydrated collagen gel (Vitrogen; Collagen Corporation, Palo Alto, Calif.) and fibronectin. Endothelial cells were stimulated with 10 ng/ml TNF-alpha for 4 hours and washed three times with warm M199. Neutrophils (10^6 /ml) were preincubated with 0.01 mM of peptides or with 1 μM of native FHA in M199 for 5 mins. on ice before they were added in 100 μl aliquots to the endothelial cells. For positive control, neutrophils were pre-incubated with 25 μg/ml anti-CD18 mAb IB4. For negative control, neutrophils were treated with 25 μg/ml mAb W6/32 against HLA class I antigen (Dako, Carpinteria, Calif.). The cells were incubated for 1 hour at 37° C., 5% CO2. To terminate transmigration, the supernatant fluid was aspirated and the wells were filled with warm 1 mM EGTA (Sigma) in HBSS without Ca and Mg. The plates were covered with plate sealers (Dynatech, Alexandria, Va.) and centrifuged in an inverted position at 250 g for 3 mins. at room temperature. To remove residual non-transmigrated neutrophils from the endothelial cells, monolayers were washed twice with 200 μl of warm Hanks solution without Ca and Mg. Fluorescence was quantitated using a fluorescence counter (Millipore Cytofluor™ 2300). The percentage of transmigrated neutrophils was determined by comparing the amount of fluorescence of test wells with that measured in collagen- and fibronectin-coated wells without endothelial cells. […] Percent inhibition of transendothelial migration of neutrophils was calculated by comparing the number of transmigrated cells in wells containing neutrophils treated with peptide to neutrophils treated with M199 alone and arbitrarily set at 100% transendothelial migration (TEM).
(§1) The procedures for determining the neutrophil adherence to cultured endothelial cells and the transendothelial migration of neutrophils were identical with those of Example 9. Control values were the same as those shown in Example 9.

Data set [2] in a line: Peripheral white blood cells in rats. The following applies: rat, in vivo. The method, then:
(§2) Three hours after LOS inoculation, 5 μCi of ^125 I-radiolabelled albumin in 50 μl normal saline was administered intravenously. One hour later, CSF was collected via intracisternal puncture and blood samples were collected via intracardiac puncture. CSF leukocytosis was determined by manually counting white blood cells using a hemacytometer, and blood-brain barrier permeability was determined as the percent of radioactivity in whole blood that was present in the CSF. Blood samples were obtained immediately prior to inoculation, immediately prior to treatment, and at 4 hours post-inoculation for determination of peripheral white blood cell concentrations.

For data set [3], the system named is blood-brain barrier. In words: Rat meningitis model (LOS): blood-brain barrier permeability. In kind it is in vivo. The method, then: Briefly, anesthetized female Wistar rats were placed under a micromanipulator and inoculated intracisternally with a 25 gauge needle. After removal of 50 μl of CSF (without visible blood contamination), rats were inoculated intracisternally with 50 μl (20 ng) of LOS using a 1 ml syringe with a 25 gauge needle. Ten to fifteen minutes after inoculation with LOS, the rats were treated by intravenous administration of the test substance: a solution of an FHA peptide in PBS, a solution of a control peptide in PBS, or an equal volume of PBS alone.
as §2

The test system of data set [4] is leukocytes in CSF. In words: Rabbit meningitis model: leukocyte migration into CSF. In kind it is in vivo. The method, then: (§3) The rabbit model was performed according to an established protocol. Specific pathogen free, New Zealand white rabbits (2 kg; Hare Marland, Nutley, N.J.) were anesthetized with valium (2.5 mg/kg, subcutaneously, Hoffman-LaRoche, Nutley, N.J.), ketamine (35 mg/kg, intramuscularly, Aveco, Fort Dodge, Iowa) and xylazine (5 mg/kg, intramuscularly, Miles Laboratories, Shawnee, Kans.) and a helmet of dental acrylic was affixed to the calvarium. Twenty four hours later, the rabbits were anesthetized with ethyl carbamate (1.75 g/kg; Aldrich Chemical Co., Milwaukee, Wis.) and pentobarbital (15 mg/kg; Abbott Laboratories, Abbott Park, Ill.) and placed in a stereotaxic frame. A spinal needle was introduced into the cisterna magna and 300 μl of CSF was withdrawn. The animals were challenged intracisternally with 10^8 heat killed, unencapsulated pneumococcus strain R6 introduced in 200 μl of saline (time 0). One hour later, animals were treated with peptides dissolved in 1 ml of saline by intravenous injection into the right marginal ear vein. The concentration of FHA was 0.1 μM and that of the FHA Ia, Factor X II, and scrambled FHA II peptides was 10 μM. For the acetyl-FHA II, acetyl/amide-FHA II, dimer of FHA II and trimer of FHA II peptides, the concentration was 10^-3 μM. The concentration of FHA II is given in the results section. Samples of CSF were withdrawn at hourly intervals after pneumococcal inoculation and leukocyte density was measured using a cell counter (Coulter Electronics Inc., Hialeah, Fla.). CSF samples were centrifuged at 10,000×g for 5 minutes and the supernatant was stored at -70° C. until assayed for protein concentration using the bicinchoninic acid method (BCA Kit, Pierce Chemical Co., Rockford, Ill.) and for lactate concentration (Lactate Detection Kit, Sigma, St. Louis, Mo.). Statistically significant differences between treatments were determined by a one way analysis of variance test.
The anti-inflammatory effects of the administered peptides were assessed in the rabbit model for meningitis by the procedures described in Example 10. The animals received 1 ml of 1 uM peptide intravenously. In a slight departure from the protocol described in Example 10, samples of blood were drawn from the left marginal ear vein 30 minutes after the administration of the peptides to determine peripheral leukocyte concentrations.

Data set [5] relates to cerebral infarct. Description: Rat transient middle cerebral artery occlusion: infarct volume. It is filed as in vivo. The note with it: 2 hours MCAo; 50 nmol i.v. plus 150 nmol i.p. boluses; 48 hours.
For data set [6], the system named is human umbilical vein endothelial cells. Description: Adherence of neutrophils to cultured (TNF-stimulated) endothelial cells. It is filed as cell-based. The procedure:
Human umbilical vein endothelial cells (HUVEC, first passage, Clonetics, San Diego, Calif.) were subcultured at confluence into Terasaki tissue culture wells. After 24 hours, confluent monolayers were used for adherence assays. Monolayers were stimulated with 10 ng/ml TNF alpha (Boehringer Mannheim, Indianapolis, Ind.) at 37° C. for four hours. 30 μl of human neutrophils (10^6 /ml) were labeled with fluorescein by the method of Lo et al. (1991), J. Exp. Med. 173 1493-1500, and preincubated for 15 minutes at 37° C. with 20 μl of peptides (0.5 mM in HAP) or HAP (phosphate buffered saline containing 0.5 mg/ml human serum albumin, 3 mM glucose, and 0.3 U/ml aprotinin) as a control buffer. For some experiments, endothelial cells were pretreated from 10 minutes with Factor X or antibodies against Factor X receptor (EPR-1; Altieri et al. (1990), J. Immunol. 145, 246-253) 12H1 and 9D4 (obtained from Dr. D. Altieri, Scripps Research Institute, Lajolla, Calif.) and then washed. Neutrophils were allowed to adhere to the monolayer for 15 mins. at 37° C. and unbound cells were removed by submersion of the plate in PBS buffer. The number of adherent neutrophils was counted in a 40× microscope field and expressed as a percentage of adherence in control wells with neutrophils treated with HAP buffer alone. The mAb IB4 against CD18 (50 μg/ml; Merck Inc., Rahway, N.J.) served as a positive control.
as §1

Data set [7] concerns blood brain barrier. In words: Rabbit meningitis model: CSF protein and lactate (blood brain barrier permeability). It is filed as in vivo. The method, then: as §3
Loss of barrier function of the cerebral capillary endothelium during inflammation is reflected by an influx of serum proteins into the CSF. […] To examine if the peptides were able to ameliorate these measures of cerebral injury, CSF protein and lactate concentrations were measured hourly in peptide-treated and control animals (Table 10).
Leukocyte migration into the CSF in bacterial meningitis is associated with loss of barrier function of the cerebral capillary endothelium, resulting in influx of serum proteins into the CSF. To determine whether FHA peptides were able to prevent this leukocyte-dependent injury, protein concentrations in the CSF were measured throughout the course of inflammation in peptide-treated and control animals.

For the sequence RGDPHQGVLAQGDIIMDAKG [FHA Ca], the “concentration required for inhibition of transendothelial migration similar to native FHA (82%)” value in data set [1] worked out at 10 µM. The neutropenia entry in data set [2] was “No neutropenia”. In data set [3] (100 nmol i.v., radioactivity in CSF of that in whole blood), the BBB permeability stood at 3.0%. For the same sequence, the “inhibition of blood-brain barrier permeability (in words)” value in data set [3] (rat, in vivo) is reported as “dose dependent”. Besides, in data set [4] (0.1 μM peptide i.v.), the “leukocyte migration into CSF (in words)” value was “significantly reduced leukocyte migration into the CSF”. For the same sequence, in data set [4] (7 hours, 1 ml of 1 uM peptide i.v.), the “leukocyte density in CSF” value came out at 2137±1498 cells/μl CSF. In addition, the infarct volume entry in data set [5] was “approximately 25 % of the hemisphere”. Also, in data set [6], the “concentration at which loss of activity (≤20% inhibition) occurred” value turned out to be 1 µM. In data set [6] (0.5 mM), the “inhibition of neutrophil adherence to endothelial cells” value was 47±7%. Also, the “maximal inhibition of neutrophil attachment” value in data set [6] (concentration dependence) is ~ 50%. The results for the “Total protein in CSF” value in data set [7] (6 hours) and in data set [7] (7 hours) were 1.18 ± 0.39 mg/mL and 1.69 ± 0.41 mg/mL, respectively.
